Values quoted from earlier work in patent publication US20070190114A1, “Antioxidant health lozenges” (priority 2006, published 2007).

How the values were obtained:
[1] = daily dose of 600 mg
[2] = system: peripheral lymphocytes; conditions: peripheral lymphocytes in smokers
[3] = system: alveolar macrophages; conditions: alveolar macrophages in smokers

CC(=O)N[C@@H](CS)C(=O)O [N-acetyl cysteine]
cancer chemopreventive effect [1]: effective cancer chemopreventive agent

O=C(O[C@@H]1Cc2c(O)cc(O)cc2O[C@@H]1c1cc(O)c(O)c(O)c1)c1cc(O)c(O)c(O)c1 [epigallocatechin gallate]
sister-chromatid exchange [2]: stabilize sister-chromatid exchange in peripheral lymphocytes in smokers to a level comparable to non-smokers

Oc1ccc(C=Cc2cc(O)cc(O)c2)cc1 [resveratrol]
basal release of inflammatory cytokine [3]: inhibits basal release of inflammatory cytokine from alveolar macrophages in smokers
